Measurements reported in US10703800B2, “Cell culture medium” (La Jolla Biologics, Inc., priority 2016, dated 2020).

How the values were obtained:
CHO.DXB11 cells [1] = assay: Media supplementation with fatty acids, methyl esters, sterols, glycerides and isoprenoids, mAb1 production; type: cell-based, Chinese hamster; details: supplement in ethanol fed daily per Table 5 (2.7-10.7 μM, ethanol 0.05% v/v) vs control
Experimental: (§1) Monoclonal antibodies 1 (mAb1) and 4 (mAb4) were produced using two separate cell lines according to methods described in the previous Examples. Titer, percent of high molecular weight and low molecular weight species, acidic and basic charge variants, and glycosylation species profiles were assessed as in the previous Examples.
(§2) Fatty acids were dissolved in ethanol and fed daily according to Table 5 using two different process strategies for mAb1 and mAb4. The mAb1 process strategy was maintained at 37° C. then shifted to 31° C. during late exponential phase, with the pH being maintained at 7.0±0.2 throughout the culture. The mAb4 process strategy was maintained at 36.5° C. then shifted to 33° C. during production phase, with the pH being shifted from 7.0±0.1 to 6.8±0.1 in the late exponential phase. Both process strategies were maintained at 30% air saturation

cell line producing mAb4 = assay: Media supplementation with fatty acids, methyl esters, sterols, glycerides and isoprenoids, mAb4 production; type: cell-based; details: supplement in ethanol fed daily per Table 5 (5.0-20.0 μM, ethanol 0.09% v/v) vs control
Experimental: as §1, §2

CHO.DXB11 cells [2] = assay: Oleic acid in bench-scale bioreactors, baseline with ethanol, mAb 1; type: cell-based, Chinese hamster; details: oleic acid 40 μM fed daily vs baseline w/ethanol, 14 day fed-batch
Text: Ethanol supplemented media was further supplemented with fatty acids to determine if fatty acids altered mAb properties. Feed media was fed daily in a fed-batch process using bench-scale (2 L working volume) bioreactors. […] Media used for baseline measurements contains ethanol but no fatty acids.

CHO.DXB11 cells [3] = assay: Oleic acid in bench-scale bioreactors, baseline without fatty acids or ethanol, mAb 1; type: cell-based, Chinese hamster; details: oleic acid 40 μM + ethanol 0.057% v/v fed daily vs baseline without both, 14 day fed-batch
Text: Feed media was supplemented with fatty acids to determine if fatty acids altered mAb properties. Feed media was fed daily in a fed-batch process using bench-scale (2 L working volume) bioreactors.

CHO.DXB11 derived clone = assay: Sodium chloride supplementation, microscale bioreactors, mAb3; type: cell-based, Chinese hamster; details: sodium chloride 4.59 mM and 9.18 mM fed daily, 12 day fed-batch
Experimental: Monoclonal antibody 3 (mAb3) is a monoclonal antibody produced using recombinant DNA technology. The expression vector is fully synthetic with both heavy- and light-chain gene sequences regulated by strong constitutive promoters. Gene sequences were confirmed by DNA sequencing. The expression vector was linearized by restriction enzymes and stably transfected into CHO.DXB11 cells by electroporation. Gene amplification steps were performed with increasing concentrations of methotrexate. Single cell cloning was performed after gene amplification. Select single cell clones were expanded and cryopreserved. The cell line used was a CHO.DXB11 derived clone.
Sodium chloride was fed daily at 4.59 mM and 9.18 mM using two different process strategies. Process strategy 1 was maintained at 36.5° C. then shifted to 31° C. during production phase. Process strategy 2 was maintained at 36.5° C. then shifted to 31° C. during production phase then re-shifted back to 36.5° C. during late production phase. Both process strategies were maintained at 30% air saturation and a pH of 7.0±0.2. Other glycan species and HMW % and LMW % are not listed because no significant change in levels were observed from sodium chloride supplementation.

[4] = process strategies 1 and 2, mAb3

CCCCCCCC(=O)OCC(O)CO (racemic) [1-octanoyl-rac-glycerol]
Effect on G0F glycan species (CHO.DXB11 cells [1]): decreased | Effect on acidic charge variants (CHO.DXB11 cells [1]): decreased | Effect on low molecular weight species (CHO.DXB11 cells [1]): decreased | Effect on titer (CHO.DXB11 cells [1]): increased | Effect on acidic charge variants (cell line producing mAb4): decreased | Effect on relative percentage of G0F glycan species (cell line producing mAb4): decreased | Effect on relative percentage of G0 glycan species (cell line producing mAb4): decreased | Effect on relative percentage of HMW species (cell line producing mAb4): decreased | Effect on relative percentage of Man5 glycan species (cell line producing mAb4): decreased | Effect on relative percentage of basic charge variants (cell line producing mAb4): decreased

CC(C)CCC[C@@H](C)[C@H]1CC[C@H]2[C@@H]3CC=C4C[C@@H](O)CC[C@]4(C)[C@H]3CC[C@]12C [cholesterol]
Effect on G0 glycan species (CHO.DXB11 cells [1]): Decreased | Effect on basic charge variants (CHO.DXB11 cells [1]): decreased | Effect on relative percentage of G0 glycan species (cell line producing mAb4): decreased | Effect on relative percentage of Man5 glycan species (cell line producing mAb4): decreased | Effect on relative percentage of basic charge variants (cell line producing mAb4): decreased

CCCCC/C=C\C/C=C\CCCCCCCC(=O)O [linoleic acid]
Effect on acidic charge variants (CHO.DXB11 cells [1]): decreased | Effect on low molecular weight species (CHO.DXB11 cells [1]): decreased | Effect on titer (CHO.DXB11 cells [1]): increased | Effect on LMW species (cell line producing mAb4): decreased | Effect on acidic charge variants (cell line producing mAb4): decreased | Effect on relative percentage of G0 glycan species (cell line producing mAb4): decreased | Effect on relative percentage of Man5 glycan species (cell line producing mAb4): decreased

CCCCCCCC(=O)OC [methyl octanoate]
Effect on G0F glycan species (CHO.DXB11 cells [1]): decreased | Effect on G0 glycan species (CHO.DXB11 cells [1]): Decreased | Effect on acidic charge variants (CHO.DXB11 cells [1]): decreased | Effect on relative percentage of G0 glycan species (cell line producing mAb4): decreased | Effect on relative percentage of HMW species (cell line producing mAb4): decreased | Effect on relative percentage of Man5 glycan species (cell line producing mAb4): decreased | Effect on relative percentage of basic charge variants (cell line producing mAb4): decreased

CCCCCCCCCCCCCC(=O)O [myristic acid]
Effect on G0F glycan species (CHO.DXB11 cells [1]): decreased | Effect on G0 glycan species (CHO.DXB11 cells [1]): Decreased | Effect on acidic charge variants (CHO.DXB11 cells [1]): decreased | Effect on acidic charge variants (cell line producing mAb4): decreased | Effect on relative percentage of G0 glycan species (cell line producing mAb4): decreased | Effect on relative percentage of HMW species (cell line producing mAb4): decreased | Effect on relative percentage of Man5 glycan species (cell line producing mAb4): decreased | Effect on relative percentage of basic charge variants (cell line producing mAb4): decreased

CCCCCCCC/C=C\CCCCCCCC(=O)O [oleic acid]
Effect on G0F glycan species (CHO.DXB11 cells [1]): decreased | Effect on G0 glycan species (CHO.DXB11 cells [1]): Decreased | Effect on acidic charge variants (CHO.DXB11 cells [1]): decreased | Effect on G0F glycan species (CHO.DXB11 cells [2]): increased | Effect on G0 glycan species (CHO.DXB11 cells [2]): decreased | Effect on G1F glycan species (CHO.DXB11 cells [2]): decreased | Effect on G2F glycan species (CHO.DXB11 cells [2]): decreased | Effect on Man5 glycan species (CHO.DXB11 cells [2]): decreased | Effect on acidic charge variants (CHO.DXB11 cells [2]): decreased | Effect on antibody titer (CHO.DXB11 cells [2]): decreased | Effect on basic charge variants (CHO.DXB11 cells [2]): increased | Effect on high molecular weight species (CHO.DXB11 cells [2]): increased | Effect on low molecular weight species (CHO.DXB11 cells [2]): increased | Effect on acidic charge variants (cell line producing mAb4): decreased | Effect on relative percentage of G0 glycan species (cell line producing mAb4): decreased | Effect on relative percentage of Man5 glycan species (cell line producing mAb4): decreased | Effect on G0F glycan species (CHO.DXB11 cells [3]): decreased | Effect on G0 glycan species (CHO.DXB11 cells [3]): decreased | Effect on G1F glycan species (CHO.DXB11 cells [3]): increased | Effect on G2F glycan species (CHO.DXB11 cells [3]): increased | Effect on Man5 glycan species (CHO.DXB11 cells [3]): decreased | Effect on acidic charge variants (CHO.DXB11 cells [3]): decreased | Effect on high molecular weight species (CHO.DXB11 cells [3]): decreased | Effect on monoclonal antibody titer (CHO.DXB11 cells [3]): increased

CCCCCCCCCCCCCCCC(=O)O [palmitic acid]
Effect on G0 glycan species (CHO.DXB11 cells [1]): Decreased | Effect on acidic charge variants (CHO.DXB11 cells [1]): decreased | Effect on basic charge variants (CHO.DXB11 cells [1]): decreased | Effect on low molecular weight species (CHO.DXB11 cells [1]): decreased | Effect on LMW species (cell line producing mAb4): decreased | Effect on acidic charge variants (cell line producing mAb4): decreased

[Cl-].[Na+] [sodium chloride]
Effect on HMW % (CHO.DXB11 derived clone; mAb3): did not change | Effect on LMW % (CHO.DXB11 derived clone; mAb3): did not change | Effect on G0F glycan species (CHO.DXB11 derived clone; [4]): decreased | Effect on G0 glycan species (CHO.DXB11 derived clone; [4]): increased | Effect on G1F glycan species (CHO.DXB11 derived clone; [4]): increased | Effect on G2F glycan species (CHO.DXB11 derived clone; [4]): increased | Effect on Man5 glycan species (CHO.DXB11 derived clone; [4]): increased | Effect on acidic charge variants (CHO.DXB11 derived clone; [4]): increased | Effect on basic charge variants (CHO.DXB11 derived clone; [4]): increased | Effect on monoclonal antibody titer (CHO.DXB11 derived clone; [4]): decreased | Effect on monoclonal antibody titer (CHO.DXB11 derived clone; process strategies 1 and 2, mAb3, listed as Sodium chloride): reduced

CCCCCCCCCCCCCCCCCC(=O)O [stearic acid]
Effect on G0 glycan species (CHO.DXB11 cells [1]): Decreased | Effect on basic charge variants (CHO.DXB11 cells [1]): decreased | Effect on low molecular weight species (CHO.DXB11 cells [1]): decreased | Effect on acidic charge variants (cell line producing mAb4): decreased

Cc1ccc(C(C)C)c(O)c1 [thymol]
Effect on G0 glycan species (CHO.DXB11 cells [1]): Decreased | Effect on acidic charge variants (CHO.DXB11 cells [1]): decreased | Effect on low molecular weight species (CHO.DXB11 cells [1]): decreased | Effect on titer (CHO.DXB11 cells [1]): increased | Effect on LMW species (cell line producing mAb4): decreased | Effect on acidic charge variants (cell line producing mAb4): decreased | Effect on relative percentage of HMW species (cell line producing mAb4): decreased | Effect on relative percentage of Man5 glycan species (cell line producing mAb4): decreased | Effect on relative percentage of basic charge variants (cell line producing mAb4): decreased

cholesteryl acetate
Effect on G0F glycan species (CHO.DXB11 cells [1]): decreased | Effect on G0 glycan species (CHO.DXB11 cells [1]): Decreased | Effect on Man5 glycan species (CHO.DXB11 cells [1]): Decreased | Effect on LMW species (cell line producing mAb4): decreased | Effect on acidic charge variants (cell line producing mAb4): decreased | Effect on relative percentage of G0 glycan species (cell line producing mAb4): decreased | Effect on relative percentage of HMW species (cell line producing mAb4): decreased | Effect on relative percentage of Man5 glycan species (cell line producing mAb4): decreased | Effect on relative percentage of basic charge variants (cell line producing mAb4): decreased
